The target in experiment [1] is JAK1 (recombinant purified GST-tagged catalytic domain) (Homo sapiens (Human), UniProt P23458). The experiment can be described thus: biochemical.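 Note: biochemical assay with HTRF read-out.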
For experiment [2], the target named is JAK2 (recombinant purified GST-tagged catalytic domain) (Homo sapiens (Human), UniProt O60674). Kind of experiment: biochemical.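 Note: biochemical JAK kinase assay with HTRF detection.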

Structures are written as SMILES. pIC50: −log10 of the molar value.

Sequence of JAK1 (recombinant purified GST-tagged catalytic domain) (P23458 875-1153): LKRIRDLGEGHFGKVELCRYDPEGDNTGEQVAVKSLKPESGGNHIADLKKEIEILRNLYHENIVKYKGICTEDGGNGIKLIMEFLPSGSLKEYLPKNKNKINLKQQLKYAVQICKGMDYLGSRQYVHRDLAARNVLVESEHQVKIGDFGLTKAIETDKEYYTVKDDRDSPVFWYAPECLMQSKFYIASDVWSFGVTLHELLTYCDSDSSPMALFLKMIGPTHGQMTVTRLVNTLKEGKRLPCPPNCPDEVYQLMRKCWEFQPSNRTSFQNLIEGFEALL
Sequence of JAK2 (recombinant purified GST-tagged catalytic domain) (O60674 849-1124): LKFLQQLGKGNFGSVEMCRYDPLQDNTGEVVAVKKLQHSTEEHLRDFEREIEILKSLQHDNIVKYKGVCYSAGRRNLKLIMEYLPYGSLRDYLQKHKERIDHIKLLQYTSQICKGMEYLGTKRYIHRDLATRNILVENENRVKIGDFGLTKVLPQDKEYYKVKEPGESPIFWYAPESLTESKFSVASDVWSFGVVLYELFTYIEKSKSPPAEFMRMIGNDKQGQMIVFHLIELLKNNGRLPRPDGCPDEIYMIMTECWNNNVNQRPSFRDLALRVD

Take `Cn1cc(-c2cncc(Nc3nn(C4CCCC[C@@H]4C#N)cc3C(N)=O)c2)cn1` (single isomer, unassigned) [Example 21-1, 1-[(1S,2S or 1R,2R)-2-Cyanocyclohexyl]-3-{[5-(1-methyl-1H-pyrazol-4-yl)pyridin-3-yl]amino}-1H-pyrazole-4-carboxamide]: the pIC50 is 8.22 in experiment [1] and 7.14 in experiment [2].
For the molecule `N#C[C@H]1C[C@H](O)CC[C@@H]1n1cc(C(N)=O)c(Nc2ccc(OC(F)(F)F)cc2)n1` (single isomer, unassigned) [Example 24, 1-((1S,2S or 1R,2R)-2-cyano-4(R)-hydroxycyclohexyl)-3-((4-(trifluoromethoxy)phenyl)amino)-1H-pyrazole-4-carboxamide], the negative logarithm of the IC50 (pIC50) in experiment [1] is 8.22; in experiment [2] it was 7.21.
For `N#Cc1ccc(Nc2nn([C@H]3CC[C@@H](O)C[C@@H]3C#N)cc2C(N)=O)cc1` (single isomer, unassigned) [Example 25-4, 1-[(1S,2S,4R or 1R,2R,4S)-2-cyano-4-hydroxycyclohexyl]-3-[(4-cyanophenyl)amino]-1H-pyrazole-4-carboxamide], the negative logarithm of the IC50 (pIC50) in experiment [1] is 9.26; in experiment [2], 8.52.
Regarding `N#C[C@H]1C[C@H](O)CC[C@@H]1n1cc(C(N)=O)c(Nc2ccc(C(F)(F)F)cc2)n1` (single isomer, unassigned) [Example 25-5, 1-[(1S,2S,4R or 1R,2R,4S)-2-cyano-4-hydroxycyclohexyl]-3-{[4-(trifluoromethyl)phenyl]amino}-1H-pyrazole-4-carboxamide], the values for the negative logarithm of the IC50 (pIC50) in experiment [1] and in experiment [2] were 9.00 and 8.00, respectively.
Taken in the same sequence, the figures for `N#C[C@H]1C[C@H](O)CC[C@@H]1n1cc(C(N)=O)c(Nc2ccc(Cl)c(Cl)c2)n1` (single isomer, unassigned) [Example 25-6, 1-[(1S,2S,4R or 1R,2R,4S)-2-cyano-4-hydroxycyclohexyl]-3-[(3,4-dichlorophenyl)amino]-1H-pyrazole-4-carboxamide] were 8.52 and 7.70.
Taken in the same sequence, the figures for `N#C[C@H]1C[C@H](O)CC[C@@H]1n1cc(C(N)=O)c(Nc2ccc(C(F)(F)F)nc2)n1` (single isomer, unassigned) [Example 25-10, 1-[(1S,2S,4R or 1R,2R,4S)-2-cyano-4-hydroxycyclohexyl]-3-{[6-(trifluoromethyl)pyridin-3-yl]amino}-1H-pyrazole-4-carboxamide] were 8.40 and 7.77.
Taken in the same sequence, the figures for `N#C[C@H]1C[C@H](O)CC[C@@H]1n1cc(C(N)=O)c(Nc2ccc([C@H](O)C(F)(F)F)cc2)n1` (single isomer, unassigned) [Example 25-13, 1-[(1S,2S,4R or 1R,2R,4S)-2-cyano-4-hydroxycyclohexyl]-3-({4-[(1S or 1R)-2,2,2-trifluoro-1-hydroxyethyl]phenyl}amino)-1H-pyrazole-4-carboxamide] were 9.60 and 8.52.
`N#C[C@H]1C[C@H](O)CC[C@@H]1n1cc(C(N)=O)c(Nc2ccc([C@@H](O)C(F)(F)F)cc2)n1` (single isomer, unassigned) [Example 25-15, 1-[(1S,2S,4R or 1R,2R,4S)-2-cyano-4-hydroxycyclohexyl]-3-({4-[(1R or 1S)-2,2,2-trifluoro-1-hydroxyethyl]phenyl}amino)-1H-pyrazole-4-carboxamide]: the negative-log IC50 (pIC50) was 9.52 in experiment [1] and 8.52 in experiment [2].
With `N#C[C@H]1C[C@H](O)CC[C@@H]1n1cc(C(N)=O)c(Nc2ccc(C(F)F)nc2)n1` (single isomer, unassigned) [Example 25-16, 1-[(1S,2S,4R or 1R,2R,4S)-2-cyano-4-hydroxycyclohexyl]-3-{[6-(difluoromethyl)pyridin-3-yl]amino}-1H-pyrazole-4-carboxamide], the pIC50 in experiment [1] was 8.52; in experiment [2], 8.00.
For `CS(=O)(=O)c1ccc(Nc2nn([C@H]3CC[C@@H](O)C[C@@H]3C#N)cc2C(N)=O)cc1` (single isomer, unassigned) [Example 25-28, 1-[(1S,2S,4R or 1R,2R,4S)-2-cyano-4-hydroxycyclohexyl]-3-{[4-(methylsulfonyl)phenyl]amino}-1H-pyrazole-4-carboxamide], the pIC50 in experiment [1] is 10.00; in experiment [2], 8.52.
In the case of `N#C[C@H]1C[C@H](O)CC[C@@H]1n1cc(C(N)=O)c(Nc2ccccc2)n1` (single isomer, unassigned) [Example 25-29, 1-[(1S,2S,4R or 1R,2R,4S)-2-cyano-4-hydroxycyclohexyl]-3-(phenylamino)-1H-pyrazole-4-carboxamide], the pIC50 was 8.70 in experiment [1] and 7.59 in experiment [2].
On to `N#C[C@H]1C[C@H](OCC2CC2)CC[C@@H]1n1cc(C(N)=O)c(Nc2ccnc(F)c2)n1` (single isomer, unassigned) [Example 26-1, 1-[(1S,2S,4R or 1R,2R,4S)-2-cyano-4-(cyclopropylmethoxy)cyclohexyl]-3-[(2-fluoropyridin-4-yl)amino]-1H-pyrazole-4-carboxamide], for which the negative-log IC50 (pIC50) is 8.70 in experiment [1] and 8.05 in experiment [2].
Turning to `N#C[C@@H]1C[C@H](OCC2CC2)CC[C@H]1n1cc(C(N)=O)c(Nc2ccnc(F)c2)n1` (single isomer, unassigned) [Example 26-2, 1-[(1R,2R,4R or 1S,2S,4S)-2-cyano-4-(cyclopropylmethoxy)cyclohexyl]-3-[(2-fluoropyridin-4-yl)amino]-1H-pyrazole-4-carboxamide], the pIC50 in experiment [1] is 8.22; in experiment [2] it was 7.12.
Consider `N#C[C@H]1C[C@H](OCC2CC2)CC[C@H]1n1cc(C(N)=O)c(Nc2ccnc(F)c2)n1` (single isomer, unassigned) [Example 26-3, 1-[(1R,2S,4R or 1S,2R,4S)-2-cyano-4-(cyclopropylmethoxy)cyclohexyl]-3-[(2-fluoropyridin-4-yl)amino]-1H-pyrazole-4-carboxamide], for which the negative-log IC50 (pIC50) in experiment [1] is 7.16; in experiment [2] it was 6.82.
Regarding `N#C[C@@H]1C[C@H](OCC2CC2)CC[C@@H]1n1cc(C(N)=O)c(Nc2ccnc(F)c2)n1` (single isomer, unassigned) [Example 26-4, 1-[(1S,2R,4R or 1R,2S,4S)-2-cyano-4-(cyclopropylmethoxy)cyclohexyl]-3-[(2-fluoropyridin-4-yl)amino]-1H-pyrazole-4-carboxamide], the negative logarithm of the IC50 (pIC50) was 7.68 in experiment [1] and 7.13 in experiment [2].
On to `N#C[C@H]1C[C@@H](N2CCC2)CC[C@@H]1n1cc(C(N)=O)c(Nc2ccc(C(F)(F)F)cc2)n1` (single isomer, unassigned) [Example 28-1, 1-((1S,2S,4S or 1R,2R,4R)-4-(azetidin-1-yl)-2-cyanocyclohexyl)-3-((4-(trifluoromethyl)phenyl)amino)-1H-pyrazole-4-carboxamide], for which the negative-log IC50 (pIC50) in experiment [1] was 9.40; in experiment [2], 7.64.
For `N#C[C@H]1C[C@@H](N2CCC2)CC[C@@H]1n1cc(C(N)=O)c(Nc2ccccc2)n1` (single isomer, unassigned) [Example 28-4, 1-((1R,2R,4R or 1S,2S,4S)-4-(Azetidin-1-yl)-2-cyanocyclohexyl)-3-(phenylamino)-1H-pyrazole-4-carboxamide], the pIC50 was 9.12 in experiment [1] and 7.41 in experiment [2].
